Assay results as given in the supplement of paper PMC10307832.

Assays:
Test in all cases: relative viability (nuclei count vs DMSO), 5 days (fraction); higher = more cells survive
[1] = compound: CC1=CC=C(C=C1)C(=O)CN2C3=C(CCCC3)SC2=N [Pifithrin_alpha] + O=C(c1cc(Cc2n[nH]c(=O)c3ccccc23)ccc1F)N1CCN(C(=O)C2CC2)CC1 [Olaparib] (partner 8 µM)
In short: (§1)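 The day after seeding in 1536-well plates, lung cancer cell lines were treated by pin tool with a single drug, or with a fixed anchor-drug dose together with five library-drug doses (not always all listed) in √10 steps. After 5 days, a combined fix-and-stain solution (final 0.05% Triton X-100, 1% formaldehyde, 1 ug/ml Hoechst) was added. Nuclei counted on 4× images gave relative viability as treated counts over vehicle counts, reported as the median of duplicate plates.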

Bemcentinib + Pictilisib = compound: Nc1nc(Nc2ccc3c(c2)CC[C@@H](N2CCCC2)CC3)nn1-c1cc2c(nn1)-c1ccccc1CCC2 [Bemcentinib] + CS(=O)(=O)N1CCN(Cc2cc3nc(-c4cccc5[nH]ncc45)nc(N4CCOCC4)c3s2)CC1 [Pictilisib] (partner 1 µM)
In short: as §1

Axitinib + Trametinib = compound: CNC(=O)c1ccccc1Sc1ccc2c(/C=C/c3ccccn3)n[nH]c2c1 [Axitinib] + CC(=O)Nc1cccc(-n2c(=O)n(C3CC3)c(=O)c3c(Nc4ccc(I)cc4F)n(C)c(=O)c(C)c32)c1 [Trametinib] (partner 0.02 µM)
In short: as §1

Bemcentinib + Phenformin = compound: Nc1nc(Nc2ccc3c(c2)CC[C@@H](N2CCCC2)CC3)nn1-c1cc2c(nn1)-c1ccccc1CCC2 [Bemcentinib] + N=C(N)NC(=N)NCCc1ccccc1 [Phenformin] (partner 250 µM)
In short: as §1

NCI-H650 gave a relative viability ([1]; first compound 3.162 µM) of 0.398, a relative viability ([1]; first compound 10 µM) of 0.339 and a relative viability ([1]; first compound 31.62 µM) of 0.221. For the same cell line, the relative viability ([1]; first compound 100 µM) was 0.355, the relative viability (Bemcentinib + Pictilisib; first compound 0.04 µM) was 0.835 and the relative viability (Bemcentinib + Pictilisib; first compound 0.1265 µM) was 1.08. For the same cell line, the relative viability (Bemcentinib + Pictilisib; first compound 0.4 µM) was 0.887, the relative viability (Bemcentinib + Pictilisib; first compound 1.265 µM) was 0.766 and the relative viability (Bemcentinib + Pictilisib; first compound 4 µM) was 0.827. The relative viability (Axitinib + Trametinib; first compound 0.005 µM) was 1.04, the relative viability (Axitinib + Trametinib; first compound 0.01581 µM) was 1 and the relative viability (Axitinib + Trametinib; first compound 0.05 µM) was 0.893. It also gave a relative viability (Axitinib + Trametinib; first compound 0.1581 µM) of 0.869, a relative viability (Axitinib + Trametinib; first compound 0.5 µM) of 1.06 and a relative viability (Bemcentinib + Phenformin; first compound 0.04 µM) of 0.407. For the same cell line, the relative viability (Bemcentinib + Phenformin; first compound 0.1265 µM) was 0.487, the relative viability (Bemcentinib + Phenformin; first compound 0.4 µM) was 0.484 and the relative viability (Bemcentinib + Phenformin; first compound 1.265 µM) was 0.429. The relative viability (Bemcentinib + Phenformin; first compound 4 µM) was 0.415.
